# Results from patent US20250066371A1, “FLUOROALKOXYALKYLENE-DIHYDROIMIDAZO[5,1-D]TETRAZINONE COMPOUNDS AND RELATED COMPOUNDS AND THEIR USE IN TREATING MEDICAL CONDITIONS” (priority 2023, published 2025).
# pIC50: −log10 of the molar value. Where a name gives a salt, the structure may show the parent alone. Read-outs that look alike come from different tables or passages of the source.
# Assays:
# Format in all cases: cell-based
# [1] = tested on: LN229 gliobastoma cells MGMT−/MMR+; assay: Anti-cancer assay, isogenic LN229 cells, nuclei count (Examples 43, 46); settings: Homo sapiens, read-out: MGMT− MMR+ Activity
# Text: (§1) Cytotoxicity of the compounds may be measured in short-term cell viability assays against four isogenic LN229 glioblastoma cell lines engineered to be proficient or deficient in MGMT and/or MMR activity by using short hairpin RNAs (shRNAs) targeting MSH2. This approach allows for determination of the relationship between MGMT status, MMR status, and compound activity. LN229 cells are maintained in Dulbecco's Modified Eagle Medium (DMEM) supplemented with 10% fetal bovine serum, 1% Penicillin/Streptomycin, and 0.1% Fungin. DAY 0: Cells are plated into sterile 96-well plates (Corning Costar 96-well) at a concentration of 500 cells/well using a Multichannel pipettor. Then, assay plates are incubated overnight in a 37° C. 5% CO2 incubator. DAY 1: Compounds are prepared as 50 mM stocks in dimethyl sulfoxide (DMSO) and stored protected from light at room temperature (RT) until use. Prior to compound addition, a two-fold serial dilution of compound stock solutions is performed in DMSO from 30 mM to 0.117 mM in a 96-well Master plate. Vehicle control wells contain DMSO. 97 μL of media is added to each well of a new 96-well plate (Daughter plate) and 3 μL of drug solution from Master plate is added to corresponding wells in the Daughter plate resulting in a 3× plate. Three replicate dilution curves of each compound are run on each assay plate. The final concentration of compounds ranges from 300 μM to 1.171 μM (9-point, 2-fold dilution dose response curve), and the final DMSO concentration is 1%.
# (§2) Assay plates are incubated for 120 hours at 37° C. in a humidified 5% CO2 incubator. DAY 5: Following incubation, cells are fixed with 4% paraformaldehyde and stained with Hoechst dye for nuclei visualization. Fixation, staining and washing is performed by using a Thermo Scientific Multidrop Combi. Images are acquired on a BioTek Cytation 5 Cell Imaging Multimode Reader and quantified using Cell Profiler image analysis software. Raw cell count data for test compounds are normalized to percent viability relative to the DMSO vehicle control.
# (§3) Isogenic LN229 gliobastoma cells were maintained in Dulbecco's Modified Eagle Medium (DMEM) supplemented with 10% fetal bovine serum, 1% Penicillin/Streptomycin, and 0.1% Fungin. DAY 0: Cells were plated into sterile 96-well plates (Corning Costar 96-well) at a concentration of 500 cells/well using a Multichannel pipettor. Then, assay plates were incubated overnight in a 37° C. 5% CO2 incubator. DAY 1: Compounds were prepared as 50 mM stocks in dimethyl sulfoxide (DMSO) and stored protected from light at room temperature (RT) until use. Prior to compound addition, a two-fold serial dilution of compound stock solutions was performed in DMSO from 30 mM to 0.117 mM in a 96-well Master plate. Vehicle control wells contained DMSO. 97 μL of media was added to each well of a new 96-well plate (Daughter plate) and 3 μL of drug solution from Master plate was added to corresponding wells in the Daughter plate resulting in a 3× plate. Three replicate dilution curves of each compound were run on each assay plate. The final concentration of compounds ranged from 300 μM to 1.171 μM (9-point, 2-fold dilution dose response curve), and the final DMSO concentration was 1%.
# as §2, with “plates were” for “plates are”, “cells were” for “cells are”, “washing was” for “washing is”, “Images were” for “Images are”, “compounds were” for “compounds are”, “control. […]” for “control.”
# [2] = tested on: LN229 gliobastoma cells MGMT−/MMR−; assay: as above; settings: Homo sapiens, read-out: MGMT− MMR− Activity
# Text: as §1, §2, §3
# as §2, with “plates were” for “plates are”, “cells were” for “cells are”, “washing was” for “washing is”, “Images were” for “Images are”, “compounds were” for “compounds are”, “control. […]” for “control.”
# [3] = tested on: LN229 gliobastoma cells MGMT+/MMR+; assay: Anti-cancer assay, isogenic LN229 cells, nuclei count (Example 43); settings: Homo sapiens, read-out: MGMT+ MMR+ Activity
# Text: as §1, §2, §3
# as §2, with “plates were” for “plates are”, “cells were” for “cells are”, “washing was” for “washing is”, “Images were” for “Images are”, “compounds were” for “compounds are”
# [4] = tested on: LN229 gliobastoma cells MGMT+/MMR−; assay: as above; settings: Homo sapiens, read-out: MGMT+ MMR− Activity
# Text: as §1, §2, §3
# as §2, with “plates were” for “plates are”, “cells were” for “cells are”, “washing was” for “washing is”, “Images were” for “Images are”, “compounds were” for “compounds are”
# [5] = LN-229, LN229 MGMT−/MMR+, 120 hours
# [6] = LN-229, LN229 MGMT−/MMR−, 120 hours
# [7] = LN-229, LN229 MGMT+/MMR+, 120 hours
# [8] = LN-229, LN229 MGMT+/MMR−, 120 hours
SMILES,"pIC50 [1, 5]","pIC50 [2, 6]","pIC50 [3, 7]","pIC50 [4, 8]","pIC50 ([1]; LN-229, 120 h)","pIC50 ([2]; LN-229, 120 h)","pIC50 ([3]; LN-229, 120 h)","pIC50 ([4]; LN-229, 120 h)"
"O=c1n(CCOC(F)(F)F)nnc2c(-c3nc4ccccc4[nH]3)ncn12 [II-1, 8-(1H-Benzo[d]imidazol-2-yl)-3-(2-(trifluoromethoxy)ethyl)imidazo[5,1-d][1,2,3,5]tetrazin-4(3H)-one]",> 4.70,< 4.00,> 4.70,4.00 to 4.30,–,–,–,–
"O=c1n(CCOC(F)(F)F)nnc2c(-c3ccccc3)ncn12 [II-5, 8-Phenyl-3-(2-(trifluoromethoxy)ethyl)imidazo[5,1-d][1,2,3,5]tetrazin-4(3H)-one]",> 4.70,4.30 to 4.70,> 4.70,> 4.70,–,–,–,–
"O=C(Nc1ccccc1)c1ncn2c(=O)n(CCOC(F)(F)F)nnc12 [Compound I-9, 4-Oxo-N-phenyl-3-(2-(trifluoromethoxy)ethyl)-3,4-dihydroimidazo[5,1-d][1,2,3,5]tetrazine-8-carboxamide]",–,–,–,–,4.30 to 4.70,> 4.70,4.00 to 4.30,< 4.00
"O=c1n(CCOC(F)(F)F)nnc2c(Cl)ncn12 [Compound I-39, 8-Chloro-3-(2-(trifluoromethoxy)ethyl)imidazo[5,1-d][1,2,3,5]tetrazin-4(3H)-one]",> 4.70,> 4.70,> 4.70,4.30 to 4.70,–,–,–,–
"CCOC(=O)c1ncn2c(=O)n(CCOC(F)(F)F)nnc12 [Compound I-30, Ethyl 4-Oxo-3-(2-(trifluoromethoxy)ethyl)-3,4-dihydroimidazo[5,1-d][1,2,3,5]tetrazine-8-carboxylate]",–,–,–,–,< 4.00,> 4.70,< 4.00,< 4.00
"O=C(NC1CCCC1)c1ncn2c(=O)n(CCOC(F)(F)F)nnc12 [Compound I-5, N-Cyclopentyl-4-oxo-3-(2-(trifluoromethoxy)ethyl)-3,4-dihydroimidazo[5,1-d][1,2,3,5]tetrazine-8-carboxamide]",4.00 to 4.30,4.30 to 4.70,< 4.00,< 4.00,–,–,–,–
NC(=O)c1ncn2c(=O)n(CCOC(F)F)nnc12 [Compound I-44],< 4.00,< 4.00,< 4.00,< 4.00,–,–,–,–
"N=C(N)c1ncn2c(=O)n(CCOC(F)(F)F)nnc12 [Compound I-34, 4-Oxo-3-(2-(trifluoromethoxy)ethyl)-3,4-dihydroimidazo[5,1-d][1,2,3,5]tetrazine-8-carboximidamide]",> 4.70,> 4.70,4.00 to 4.30,4.00 to 4.30,–,–,–,–
"O=C(NC1CC1)c1ncn2c(=O)n(CCOC(F)(F)F)nnc12 [Compound I-6, N-Cyclopropyl-4-oxo-3-(2-(trifluoromethoxy)ethyl)-3,4-dihydroimidazo[5,1-d][1,2,3,5]tetrazine-8-carboxamide]",> 4.70,4.30 to 4.70,4.30 to 4.70,> 4.70,–,–,–,–
"CN(C)C(=O)c1ncn2c(=O)n(CCOC(F)(F)F)nnc12 [Compound I-4, N,N-Dimethyl-4-oxo-3-(2-(trifluoromethoxy)ethyl)-3,4-dihydroimidazo[5,1-d][1,2,3,5]tetrazine-8-carboxamide]",4.30 to 4.70,4.30 to 4.70,4.00 to 4.30,4.30 to 4.70,–,–,–,–
"CCNC(=O)c1ncn2c(=O)n(CCOC(F)(F)F)nnc12 [Compound I-3, N-Ethyl-4-oxo-3-(2-(trifluoromethoxy)ethyl)-3,4-dihydroimidazo[5,1-d][1,2,3,5]tetrazine-8-carboxamide]",–,–,–,–,4.00 to 4.30,4.00 to 4.30,< 4.00,< 4.00
"O=NN(CCOC(F)(F)F)C(=O)NC1CCCCC1 [IV-1, 3-Cyclohexyl-1-nitroso-1-(2-(trifluoromethoxy)ethyl)urea]",–,–,–,–,4.30 to 4.70,4.30 to 4.70,4.30 to 4.70,4.30 to 4.70
"O=c1n(CCOC(F)(F)F)nnc2c(-c3nc4ccccc4o3)ncn12 [II-4, 8-(benzo[d]oxazol-2-yl)-3-(2-(trifluoromethoxy)ethyl) imidazo[5,1-d][1,2,3,5]tetrazin-4(3H)-one]",4.30 to 4.70,> 4.70,> 4.70,> 4.70,–,–,–,–
"NCCNC(=O)c1ncn2c(=O)n(CCOC(F)(F)F)nnc12 [Compound I-12, Hydrochloride Salt of N-(2-Aminoethyl)-4-oxo-3-(2-(trifluoromethoxy)ethyl)-3,4-dihydroimidazo[5,1-d][1,2,3,5]tetrazine-8-carboxamide]",4.00 to 4.30,4.30 to 4.70,< 4.00,< 4.00,–,–,–,–
"Cc1cnc(-c2ncn3c(=O)n(CCOC(F)(F)F)nnc23)o1 [II-3, 8-(5-Methyloxazol-2-yl)-3-(2-(trifluoromethoxy)ethyl) imidazo[5,1-d][1,2,3,5]tetrazin-4(3H)-one]",4.30 to 4.70,4.30 to 4.70,4.30 to 4.70,4.30 to 4.70,–,–,–,–
NC(=O)c1ncn2c(=O)n(CCCOCC(F)(F)F)nnc12 [Compound I-22],< 4.00,< 4.00,< 4.00,< 4.00,–,–,–,–
"NC(=S)c1ncn2c(=O)n(CCOC(F)(F)F)nnc12 [Compound I-31, 4-Oxo-3-(2-(trifluoromethoxy)ethyl)-3,4-dihydroimidazo[5,1-d][1,2,3,5]tetrazine-8-carbothioamide]",4.30 to 4.70,> 4.70,< 4.00,< 4.00,–,–,–,–
"O=C(c1ncn2c(=O)n(CCOC(F)(F)F)nnc12)N1CCCC1 [Compound I-7, 8-(Pyrrolidine-1-carbonyl)-3-(2-(trifluoromethoxy)ethyl)imidazo[5,1-d][1,2,3,5]tetrazin-4(3H)-one]",4.30 to 4.70,4.30 to 4.70,4.30 to 4.70,4.00 to 4.30,–,–,–,–
NC(=O)c1ncn2c(=O)n(COC(C(F)(F)F)C(F)(F)F)nnc12 [Compound I-23],< 4.00,< 4.00,< 4.00,< 4.00,–,–,–,–
"Cc1cnc(-c2ncn3c(=O)n(CCOC(F)(F)F)nnc23)s1 [II-6, 8-(5-Methylthiazol-2-yl)-3-(2-(trifluoromethoxy)ethyl)imidazo[5,1-d][1,2,3,5]tetrazin-4(3H)-one]",4.30 to 4.70,> 4.70,> 4.70,> 4.70,–,–,–,–
CNC(=O)c1ncn2c(=O)n(CCOC(F)(F)F)nnc12 [Compound I-26],4.30 to 4.70,> 4.70,< 4.00,< 4.00,–,–,–,–
"CN(C)CCN(C)C(=O)c1ncn2c(=O)n(CCOC(F)(F)F)nnc12 [Compound I-11, N-(2-(Dimethylamino)ethyl)-N-methyl-4-oxo-3-(2-(trifluoromethoxy)ethyl)-3,4-dihydroimidazo[5,1-d][1,2,3,5]tetrazine-8-carboxamide]",–,–,–,–,> 4.70,> 4.70,4.00 to 4.30,4.00 to 4.30
